Like-named read-outs stand apart in the source and are kept apart here.
Assays:
[1] = system: Peripheral blood mononuclear cells (PBMC); assay: Cytokine Induction in Human Cells (in vitro human blood cell system, IFN and TNF secreted into culture media); format: cell-based; set-up: key to Lowest Effective Concentration (μM) Tumor Necrosis Factor / Lowest Effective Concentration (μM) Interferon: *: no induction was seen at any of the tested concentrations; conditions: 18 to 24 hours, tested 30-0.014 μM; for minimal effective concentration: Homo sapiens, PBMC
Summary of the method: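 Human donor PBMC (2×10^6 cells/mL, RPMI complete) incubated 18–24 h at 37 °C, 5% CO2 with compound, 3-fold dilutions 30–0.014 μM, ≤1% DMSO. IFN-α measured by ELISA, TNF-α by ELISA or IGEN immunoassay in supernatants (pg/mL). Value is lowest concentration inducing each cytokine.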

[2] = lowest concentration found to induce interferon (α), ELISA
[3] = lowest concentration found to induce tumor necrosis factor (α), ELISA or IGEN assay
[4] = lowest concentration found to induce interferon (α), ELISA, read-out: Lowest Effective Concentration (μM) Interferon
[5] = lowest concentration found to induce tumor necrosis factor (α), ELISA or IGEN assay, read-out: Lowest Effective Concentration (μM) Tumor Necrosis Factor

With `Nc1nc2ccccc2c2c1ncn2CCOCC#Cc1ccc(Oc2ccccc2)cc1` [Example 9, 1-(2-{[3-(4-Phenoxyphenyl)-2-propynyl]oxy}ethyl)-1H-imidazo[4,5-c]quinolin-4-amine] the “Lowest Effective Concentration (μM) Interferon” value [1, 2] was “*”, the “Lowest Effective Concentration (μM) Tumor Necrosis Factor” value [1, 3] was “*” and the melting point was 146 to 148 °C.
In the case of `Nc1nc2ccccc2c2c1nc(-c1ccccc1)n2CCOc1ccccc1` [Example 140, 1-(2-Phenoxyethyl)-2-phenyl-1H-imidazo[4,5-c]quinolin-4-amine], the “Lowest Effective Concentration (μM) Interferon” value [1, 2] is reported as “*”, the “Lowest Effective Concentration (μM) Tumor Necrosis Factor” value [1, 3] is reported as “*” and the melting point is reported as 182.5 to 184.6 °C.
Compound `Nc1nc2ccccc2c2c1ncn2CCOCC#Cc1ccccc1C(F)(F)F` [Example 10, 1-[2-({3-[2-(Trifluoromethyl)phenyl]-2-propynyl}oxy)ethyl]-1H-imidazo[4,5-c]quinolin-4-amine] has a minimal effective concentration [1, 4] of 1.11 µM, a minimal effective concentration [1, 5] of 10 µM and a melting point of 154 to 155 °C.
Compound `CCCCc1nc2c(N)nc3ccccc3c2n1CCOc1ccccc1` [Example 132, 2-Butyl-1-(2-phenoxyethyl)-1H-imidazo[4,5-c]quinolin-4-amine] has a minimal effective concentration [1, 4] of 0.01 µM, a minimal effective concentration [1, 5] of 3.33 µM and a melting point of 168.3 to 169.5 °C.
In the case of `COc1ccc(Cc2nc3c(N)nc4ccccc4c3n2CCOc2ccccc2)cc1` [Example 134, 2-(4-Methoxybenzyl)-1-(2-phenoxyethyl)-1H-imidazo[4,5-c]quinolin-4-amine], the “Lowest Effective Concentration (μM) Interferon” value [1, 2] is reported as “*”, the “Lowest Effective Concentration (μM) Tumor Necrosis Factor” value [1, 3] is reported as “*” and the melting point is reported as 201 to 203.6 °C.
In the case of `N#Cc1ccc(COCCn2cnc3c(N)nc4ccccc4c32)cc1` [Example 19, 4-{[2-(4-Amino-1H-imidazo[4,5-c]quinolin-1-yl)ethoxy]methyl}benzonitrile], the minimal effective concentration [1, 4] is reported as 0.37 µM, the “Lowest Effective Concentration (μM) Tumor Necrosis Factor” value [1, 3] is reported as “*” and the melting point is reported as 238.1 to 239.2 °C.
Compound `Nc1nc2ccccc2c2c1ncn2CCOC/C=C/c1ccccc1` [Example 115, 1-(2-{[(2E)-3-Phenylprop-2-enyl]oxy}ethyl)-1H-imidazo[4,5-c]quinolin-4-amine] has a minimal effective concentration [1, 4] of 0.12 µM, a minimal effective concentration [1, 5] of 1.11 µM and a melting point of 183.7 to 184.3 °C.
`Cc1nc2c(N)nc3ccccc3c2n1CCCOCC#Cc1ccccc1` [Example 147, 2-Methyl-1-{3-[(3-phenylprop-2-ynyl)oxy]propyl}-H-imidazo[4,5-c]quinolin-4-amine] gave a minimal effective concentration [1, 4] of 0.37 µM, a minimal effective concentration [1, 5] of 0.37 µM and a melting point of 160 to 161.6 °C.
`Cc1nc2c(N)nc3ccccc3c2n1CCOCCCc1ccccc1` [Example 119, 2-Methyl-1-[2-(3-phenylpropoxy)ethyl]-1H-imidazo[4,5-c]quinolin-4-amine] gave a minimal effective concentration [1, 4] of 0.01 µM, a minimal effective concentration [1, 5] of 0.12 µM and a melting point of 129.7 to 130.7 °C.
Work on `CCOCc1nc2c(N)nc3ccccc3c2n1CCOCc1ccccc1` [Example 125, 1-[2-(Benzyloxy)ethyl]-2-(ethoxymethyl)-1H-imidazo[4,5-c]quinolin-4-amine] yielded a minimal effective concentration [1, 4] of 0.01 µM, a minimal effective concentration [1, 5] of 0.37 µM and a melting point of 144.5 to 146 °C.
With `CCCCCCCCc1nc2c(N)nc3ccccc3c2n1CCOCc1ccccc1` [Example 128, 1-[2-(Benzyloxy)ethyl]-2-octyl-1H-imidazo[4,5-c]quinolin-4-amine] the “Lowest Effective Concentration (μM) Interferon” value [1, 2] was “*”, the “Lowest Effective Concentration (μM) Tumor Necrosis Factor” value [1, 3] was “*” and the melting point was 110 to 111 °C.
Compound `Cc1nc2c(N)nc3ccccc3c2n1CCCCOCCCc1ccccc1` [Example 150, 2-Methyl-1 [4-(3-phenylpropoxy)butyl]-1H-imidazo[4,5-c]quinolin-4-amine] has a minimal effective concentration [1, 4] of 0.37 µM, a minimal effective concentration [1, 5] of 1.11 µM and a melting point of 105.1 to 106 °C.
`CCCCc1nc2c(N)nc3ccccc3c2n1CCOCc1ccccc1` [Example 126, 1-[2-(Benzyloxy)ethyl]-2-butyl-1H-imidazo[4,5-c]quinolin-4-amine] showed a minimal effective concentration [1, 4] of 0.04 µM, a minimal effective concentration [1, 5] of 0.04 µM and a melting point of 133 to 135 °C.
`CCC(COCc1cccc(Cl)c1)n1cnc2c(N)nc3ccccc3c21` (stereo not drawn) [Example 17, 1-(1-{[(3-Chlorobenzyl)oxy]methyl}propyl)-1H-imidazo[4,5-c]quinolin-4-amine] showed a minimal effective concentration [1, 4] of 0.12 µM, a minimal effective concentration [1, 5] of 0.37 µM and a melting point of 60 to 62 °C.
Work on `C#CCOCCn1cnc2c(N)nc3ccccc3c21` [Example 1, 1-[2-(2-Propynyloxy)ethyl]-1H-imidazo[4,5-c]quinolin-4-amine] yielded a minimal effective concentration [1, 4] of 0.12 µM, a minimal effective concentration [1, 5] of 1.11 µM and a melting point of 225 to 227 °C.
